Source: article PMC5803267, “A small molecule inhibitor of Rheb selectively targets mTORC1 signaling” (Nature Communications, 2018)
Entries after “also recorded” stand apart in the source; their conditions may differ.

What was measured:
Rap1 = Rap1 in vitro activity assay (GST-RalGDS-RBD pulldown from lysates); type: biochemical, human; conditions: lysates loaded with GDP or GTPγS, compound 30 min
Experimental: MCF-7 cells were serum-starved for 16 h and treated with compound for 90 min before cell lysis and Western blot analysis. For insulin-stimulated cells, 100 nM insulin was added 30 min before cell lysis. For EGF-stimulated cells, 100 ng mL^−1 EGF was added 10 min before cell lysis. c Rap1 activity was detected in lysates loaded in vitro with either GDP or GTPγS and treated with NR1 at the indicated concentrations. This was followed by a subsequent pulldown of GST-RalGDS-RBD. Bound Rap1 was detected by Western blot. d Evaluation of NR1 in a LAM patient-derived cell line (TRI102) under replete and serum-starved conditions. For replete conditions, TRI102 cells were treated for 90 min with compound in DMEM + 10% FBS. For serum-starved conditions, TRI102 cells were serum-starved 16 h and then treated for 90 min with compound prior to cell lysis and Western blot analysis. e HEK293 cells co-transfected with the indicated mTOR constructs and HA-GST-S6K1 were starved of amino acids or treated with NR1. To assess mTORC1 activity, an HA IP was performed and Western blots probed for ^T389pS6K1. f Chronic treatment of PC3 cells with NR1 to evaluate the inhibition of mTORC1 (using ^T389pS6K1) versus mTORC2 (using ^S473pAKT). PC3 cells were treated with compound under replete conditions for 24 h prior to cell lysis and Western blot analysis. […]

[1] = system: S473pAKT (mTORC2) in PC3 cells; assay: Chronic treatment of PC3 cells, S473pAKT Western blot; type: cell-based, human
Experimental: MCF-7 cells were serum-starved for 16 h and treated with compound for 90 min before cell lysis and Western blot analysis. For insulin-stimulated cells, 100 nM insulin was added 30 min before cell lysis. For EGF-stimulated cells, 100 ng mL^−1 EGF was added 10 min before cell lysis. c Rap1 activity was detected in lysates loaded in vitro with either GDP or GTPγS and treated with NR1 at the indicated concentrations. This was followed by a subsequent pulldown of GST-RalGDS-RBD. Bound Rap1 was detected by Western blot. d Evaluation of NR1 in a LAM patient-derived cell line (TRI102) under replete and serum-starved conditions. For replete conditions, TRI102 cells were treated for 90 min with compound in DMEM + 10% FBS. For serum-starved conditions, TRI102 cells were serum-starved 16 h and then treated for 90 min with compound prior to cell lysis and Western blot analysis. e HEK293 cells co-transfected with the indicated mTOR constructs and HA-GST-S6K1 were starved of amino acids or treated with NR1. To assess mTORC1 activity, an HA IP was performed and Western blots probed for ^T389pS6K1. f Chronic treatment of PC3 cells with NR1 to evaluate the inhibition of mTORC1 (using ^T389pS6K1) versus mTORC2 (using ^S473pAKT). PC3 cells were treated with compound under replete conditions for 24 h prior to cell lysis and Western blot analysis.
Accordingly, a hallmark of a selective mTORC1 inhibitor such as NR1 would be the lack of mTORC2 inhibition irrespective of the duration of treatment. PC3 cells are sensitive to mTORC2 inhibition with long-term rapamycin treatment. Indeed, upon treatment with rapamycin for 24 h, both ^T389pS6K1 and ^S473pAKT were lowered, indicating inhibitory effects on both mTORC1 and mTORC2, respectively.
For Western-based signaling assays, cells were treated for either 90 min or 2–24 h as indicated before lysis, normalization, and Western analysis. Cells were lysed in Triton lysis buffer: 1% Triton X-100, 50 mM HEPES pH 7.4, 100 mM NaCl, 2 mM EDTA, 10 mM β-glycerophosphate, 10 mM Na-pyrophosphate, protease inhibitor.

[2] = system: mTORC1 activity (S240/244pS6) in kidney; assay: PD study: feeding-induced mTORC1 activation in kidney; type: in vivo, mouse; conditions: mice fasted 16 h, 30 mg kg^−1 IP, re-fed 2 h
Experimental: The selective inhibition of mTORC1 activation by NR1 in vitro and in cell-based systems prompted us to evaluate the effect of this compound on mTORC1 activity in vivo. […] In particular, the plasma concentration of NR1 was sustained over 5 µM for 2 h after IP administration of a 30 mg kg^−1 dose (Supplementary Fig. 10). We therefore carried out a pharmacodynamic (PD) study to evaluate the efficacy of NR1 at inhibiting mTORC1 signaling in vivo. In this experiment, mice were starved overnight to achieve a low basal level of mTORC1 activation (pre-dose). After a 16 h fast, the animals were treated with either vehicle or 30 mg kg^−1 NR1 and allowed to re-feed for 2 h before sacrifice and tissue collection. mTORC1 activity was measured by quantification of ^S240/244pS6 by Western blot analysis with a specific antibody. […]
This study was conducted in accordance with the requirements for the humane care and use of animals set forth in the Animal Welfare Act, the IACUC Guide for the Care and Use of Laboratory Animals, applicable Shanghai and state laws, and regulations and policies of Shanghai ChemPartner Ltd. The animals were not randomized, and the study was not blinded. […] Compound levels in the plasma of treated mice were measured by LC-MS/MS and compared to a standard curve of compound diluted into mouse plasma. […]

Aqueous solubility = type: physicochemical; conditions: result in words

SMILES: CN(C)C(=O)c1ccc(Cn2c(C(=O)O)cc3c(Br)cc(Sc4ccc(Cl)c(Cl)c4)cc32)cc1 [NR1, 4-bromo-6-(3,4-dichlorophenylthio)-1-(4-(dimethylcarbamoyl)benzyl)-1H-indole-2-carboxylic acid]
- effect on activity of Rap1 in vitro (Rap1): no impact on the activity of Rap1; also recorded: did not affect the activity of Rap1
- S473pAKT after 24 h treatment ([1]; PC3, replete, 24 h, NR1 30 µM, rapamycin 100 nM): no inhibition
- pAkt over time course ([1]; PC3, time points 2 h through 24 h): activates pAkt
- mTORC1 activity (S240/244pS6) in kidney versus vehicle [2]: significantly reduced mTORC1 activity
- aqueous solubility (Aqueous solubility): low aqueous solubility
